Entries after “also recorded” stand apart in the source; their conditions may differ.
Experiments:
[1] = test system: malaria strains 3D7 and K1; assay: in vitro anti-plasmodium activity, strain not told apart; type: cell-based, Plasmodium falciparum
Method: (§1) The crude extract from culture medium and roots (compound 17), a combination of MeJA derivatives (compound 16), and its individual isolated components were tested in vitro for anti-plasmodium activity against malaria strains 3D7 and K1, as described in previously developed assays. Pure compounds were prepared as 10 mM or 2 mM stock solutions in DMSO.
Parasites were grown in Petri dishes in the presence of fresh group O-positive erythrocytes (hematocrit 4%–6%) in RPMI 1640 (pH 7.3) supplemented with 0.5% AlbuMAX II, 25 mM HEPES, 25 mM NaHCO3, 100 μg/mL hypoxanthine, and 5 μg/mL gentamycin. Cultures were incubated at 37 °C with 5% O2 and 5% CO2. Compounds were prepared as 10 mM stock solutions in DMSO (except compound 18) to measure EC50. The stock solutions were plated in 384-well plates, serially diluted (1:3) in DMSO. Compounds were then transferred to a 384-well assay plate containing 20 μL of RPMI 1640 with 5 μg/mL gentamycin by using a 384-head pin tool. Twenty μL of a synchronized culture suspension (1% rings, 4% hematocrit) was added to each well (final hematocrit and parasitemia, of 2% and 1%, respectively). The final DMSO concentration was 0.65%. Assay plates were incubated for 72 h and parasitemia was measured by using a previously described DNA stain-based assay. The MAR3D7 growth inhibition assay was used for the chloroquine-sensitive 3D7 strain of P. falciparum, and quantified growth by using DNA dyes. The experiment required a total of 96 h, including a 72 h incubation with test compounds. Positive controls were chloroquine and mefloquine. The MARK1 growth inhibition assay was used for the K1 strain of P. falciparum, known to be resistant to both chloroquine and pyrimethamine due to expression of the chloroquine resistance transporter and upregulation of the multi-drug resistance efflux pump. Growth was quantitated by using DNA dyes. The experiment required a total of 96 h, including a 72 h incubation with test compounds. Positive controls were chloroquine and mefloquine.

[2] = test system: W2 strain of P. falciparum; set-up: method as in earlier work; details: 15 mg/Kg, mice; cited from earlier work
[3] = test system: K1 strain of P. falciparum; assay: MARK1 growth inhibition assay (DNA dye); type: cell-based, Plasmodium falciparum; details: 72 h incubation
Method: as §1
(§2) Parasites were grown in Petri dishes in the presence of fresh group O-positive erythrocytes (hematocrit 4%–6%) in RPMI 1640 (pH 7.3) supplemented with 0.5% AlbuMAX II, 25 mM HEPES, 25 mM NaHCO3, 100 μg/mL hypoxanthine, and 5 μg/mL gentamycin. Cultures were incubated at 37 °C with 5% O2 and 5% CO2. Compounds were prepared as 10 mM stock solutions in DMSO (except compound 18) to measure EC50. The stock solutions were plated in 384-well plates, serially diluted (1:3) in DMSO. Compounds were then transferred to a 384-well assay plate containing 20 μL of RPMI 1640 with 5 μg/mL gentamycin by using a 384-head pin tool. […] Assay plates were incubated for 72 h and parasitemia was measured by using a previously described DNA stain-based assay. The MAR3D7 growth inhibition assay was used for the chloroquine-sensitive 3D7 strain of P. falciparum, and quantified growth by using DNA dyes. […] Growth was quantitated by using DNA dyes. […]

[4] = test system: chloroquine-sensitive 3D7 strain of P. falciparum; assay: MAR3D7 growth inhibition assay (DNA dye); type: cell-based, Plasmodium falciparum; details: 72 h incubation
Method: as §1, §2

Compound	antimalarial activity (in words) [1]	in vivo antimalarial activity [2]	EC50 [3] [µM]	EC50 [4] [µM]
C[C@H]1CCC[C@@]23CC4C(C[C@]12C)C4(C)C3 [Compound 1, (2aS,6S,6aR)-1,6,6a-trimethyldecahydro-1,2a-methanocyclopropa[b]naphthalene]	promising antimalarial activity	–	–	–
CC(C)=CCC/C(C)=C/CC/C(C)=C/CC[C@]1(C)CCc2cc(O)cc(C)c2O1 [Compound 3, δ-tocotrienol]	promising antimalarial activity	–	–	–
CC[C@H](CC[C@@H](C)[C@H]1CC[C@H]2[C@@H]3CC=C4C[C@@H](O)CC[C@]4(C)[C@H]3CC[C@]12C)C(C)C [Compound 6, β-sitosterol]	–	active	–	–
C[C@@H]1CC[C@]2(C(=O)O)CC[C@]3(C)C(=CC[C@@H]4[C@@]5(C)C[C@@H](O)[C@H](O)C(C)(C)[C@@H]5CC[C@]43C)[C@@H]2[C@]1(C)O [tormentic acid, reference compound]	–	active	–	–
(3S,9S,10S,13R,17R)-17-((2R,5S,E)-5-ethyl-6-methylhept-3-en-2-yl)-9,10,13-trimethyl-2,3,4,7,8,9,10,11,12,13,14,15,16,17-tetradecahydro-1H-cyclopenta[a]phenanthren-3-ol [Compound 5]	promising antimalarial activity; also recorded: most potent compound lead	–	5	3

Reference: article PMC6271036, “Antimalarial Evaluation of the Chemical Constituents of Hairy Root Culture of Bixa orellana L” (Molecules, 2014)
